Tested on: NCI/ADR-RES complex spheroid viability
Test: Anticancer human tumor NCI/ADR-RES cell line growth inhibition;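 note: spheroids exposed to compounds for 7 days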;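 for viability, T/C: 100% = DMSO vehicle treated spheroids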
Details: for IC50: curve of first compound; for viability, T/C: stronger effect = lower value
Procedure, shortened: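 Multicellular complex spheroids of tumor cells with human endothelial cells (HUVEC) and mesenchymal stem cells; the LSD1 inhibitor iadademstat was combined with standard-of-care or investigational agents. Top concentration at or near clinical Cmax, half-log dilutions; final DMSO ≤0.25%.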

[1] = second compound 0.1 µM, first compound 0.0316 µM
[2] = second compound 0.1 µM, first compound 0.1 µM
[3] = second compound 0.316 µM, first compound 0.0316 µM
[4] = second compound 0.316 µM, first compound 0.1 µM
[5] = second compound 1 µM, first compound 0.0316 µM
[6] = second compound 1 µM, first compound 0.1 µM
[7] = second compound 3.16 µM, first compound 0.0316 µM
[8] = second compound 3.16 µM, first compound 0.1 µM
[9] = second compound 10 µM, first compound 0.0316 µM
[10] = second compound 10 µM, first compound 0.1 µM
[11] = second compound 0.1 µM, first compound 0.316 µM
[12] = second compound 0.1 µM, first compound 1 µM
[13] = second compound 0.1 µM, first compound 3.16 µM
[14] = second compound 0.1 µM, first compound 10 µM
[15] = second compound 0.316 µM, first compound 0.316 µM
[16] = second compound 0.316 µM, first compound 1 µM
[17] = second compound 0.316 µM, first compound 3.16 µM
[18] = second compound 0.316 µM, first compound 10 µM
[19] = second compound 1 µM, first compound 0.316 µM
[20] = second compound 1 µM, first compound 1 µM
[21] = second compound 1 µM, first compound 3.16 µM
[22] = second compound 1 µM, first compound 10 µM
[23] = second compound 3.16 µM, first compound 0.316 µM
[24] = second compound 3.16 µM, first compound 1 µM
[25] = second compound 3.16 µM, first compound 3.16 µM
[26] = second compound 3.16 µM, first compound 10 µM
[27] = second compound 10 µM, first compound 0.316 µM
[28] = second compound 10 µM, first compound 1 µM
[29] = second compound 10 µM, first compound 3.16 µM
[30] = second compound 10 µM, first compound 10 µM

Structure (SMILES) | IC50 (second compound 0.1 µM) [µM] | IC50 (second compound 0.316 µM) [µM] | IC50 (second compound 1 µM) [µM] | IC50 (second compound 3.16 µM) [µM] | IC50 (second compound 10 µM) [µM] | viability, T/C [1] [%] | viability, T/C [2] [%] | viability, T/C [3] [%] | viability, T/C [4] [%] | viability, T/C [5] [%] | viability, T/C [6] [%] | viability, T/C [7] [%] | viability, T/C [8] [%] | viability, T/C [9] [%] | viability, T/C [10] [%] | viability, T/C [11] [%] | viability, T/C [12] [%] | viability, T/C [13] [%] | viability, T/C [14] [%] | viability, T/C [15] [%] | further results
CC(C)CC(NC(=O)C(Cc1ccccc1)NC(=O)c1cnccn1)B(O)O (stereo not given) + NC1CC1c1ccc(-c2cccc(O)c2)cc1 | 0.0122 | 0.0127 | 0.0142 | 0.0122 | 0.0118 | 6.87 | 0.38 | 6.88 | 0.32 | 7.3 | 0.37 | 14.1 | 0.23 | 8.55 | 0.36 |  |  |  |  |  | viability, T/C (second compound 0.1 µM, first compound 0.000316 µM): 110%; viability, T/C (second compound 0.1 µM, first compound 0.001 µM): 102%; viability, T/C (second compound 0.1 µM, first compound 0.00316 µM): 92.2%; viability, T/C (second compound 0.1 µM, first compound 0.01 µM): 61%; viability, T/C (second compound 0.316 µM, first compound 0.000316 µM): 103%; viability, T/C (second compound 0.316 µM, first compound 0.001 µM): 103%; viability, T/C (second compound 0.316 µM, first compound 0.00316 µM): 94.6%; viability, T/C (second compound 0.316 µM, first compound 0.01 µM): 61.7%; viability, T/C (second compound 1 µM, first compound 0.000316 µM): 106%; viability, T/C (second compound 1 µM, first compound 0.001 µM): 99.4%; viability, T/C (second compound 1 µM, first compound 0.00316 µM): 93.5%; viability, T/C (second compound 1 µM, first compound 0.01 µM): 69%; viability, T/C (second compound 3.16 µM, first compound 0.000316 µM): 97.6%; viability, T/C (second compound 3.16 µM, first compound 0.001 µM): 98.8%; viability, T/C (second compound 3.16 µM, first compound 0.00316 µM): 87%; viability, T/C (second compound 3.16 µM, first compound 0.01 µM): 58.2%; viability, T/C (second compound 10 µM, first compound 0.000316 µM): 90.5%; viability, T/C (second compound 10 µM, first compound 0.001 µM): 88.8%; viability, T/C (second compound 10 µM, first compound 0.00316 µM): 75.4%; viability, T/C (second compound 10 µM, first compound 0.01 µM): 59.6%
CC(C)c1c(-c2ccccc2)nc2c(C#N)c[nH]n2c1=O + NC1CC1c1ccc(-c2cccc(O)c2)cc1 | > 10 | > 10 | > 10 | > 10 | > 10 | 104 | 107 | 113 | 106 | 109 | 101 | 106 | 108 | 87 | 96.3 | 102 | 103 | 108 | 95.3 | 104 | viability, T/C [16]: 102%; viability, T/C [17]: 109%; viability, T/C [18]: 98.9%; viability, T/C [19]: 106%; viability, T/C [20]: 106%; viability, T/C [21]: 100%; viability, T/C [22]: 96.5%; viability, T/C [23]: 106%; viability, T/C [24]: 107%; viability, T/C [25]: 97.6%; viability, T/C [26]: 98.9%; viability, T/C [27]: 91.7%; viability, T/C [28]: 91.2%; viability, T/C [29]: 89.2%; viability, T/C [30]: 84.2%
O=C(c1cc(Cc2n[nH]c(=O)c3ccccc23)ccc1F)N1CCN(C(=O)C2CC2)CC1 + NC1CC1c1ccc(-c2cccc(O)c2)cc1 | > 10 | > 10 | > 10 | > 10 | > 10 | 112 | 108 | 111 | 115 | 106 | 106 | 110 | 111 | 91.8 | 95.3 | 107 | 105 | 99.5 | 91.8 | 108 | viability, T/C [16]: 103%; viability, T/C [17]: 106%; viability, T/C [18]: 95%; viability, T/C [19]: 103%; viability, T/C [20]: 104%; viability, T/C [21]: 99.4%; viability, T/C [22]: 80.1%; viability, T/C [23]: 103%; viability, T/C [24]: 97.3%; viability, T/C [25]: 96.7%; viability, T/C [26]: 88.6%; viability, T/C [27]: 96.4%; viability, T/C [28]: 94.4%; viability, T/C [29]: 88.7%; viability, T/C [30]: 74.5%
